Columns and labels:
UACC-257 = assay: Cytotoxicity against human UACC257 cells at 10 uM assessed as cell growth relative to control; assay type: functional; details: read-out: Activity
NCI-H23 = assay: Cytotoxicity against human NCI-H23 cells at 10 uM assessed as cell growth relative to control; assay type: functional; details: read-out: Activity
MDA-MB-468 = assay: Cytotoxicity against human MDA-MB-468 cells at 10 uM assessed as cell growth relative to control; assay type: functional; details: read-out: Activity
SK-OV-3 = assay: Cytotoxicity against human SKOV3 cells at 10 uM assessed as cell growth relative to control; assay type: functional; details: read-out: Activity
SNB-19 = assay: Cytotoxicity against human SNB19 cells at 10 uM assessed as cell growth relative to control; assay type: functional; details: read-out: Activity
KM12 = assay: Cytotoxicity against human KM12 cells at 10 uM assessed as cell growth relative to control; assay type: functional; details: read-out: Activity
OVCAR-4 = assay: Cytotoxicity against human OVCAR4 cells at 10 uM assessed as cell growth relative to control; assay type: functional; details: read-out: Activity
NCI-H460 = assay: Cytotoxicity against human NCI-H460 cells at 10 uM assessed as cell growth relative to control; assay type: functional; details: read-out: Activity
RXF 393 = assay: Cytotoxicity against human RXF393 cells at 10 uM assessed as cell growth relative to control; assay type: functional; details: read-out: Activity
ACHN = assay: Cytotoxicity against human ACHN cells at 10 uM assessed as cell growth relative to control; assay type: functional; details: read-out: Activity
NCI-H522 = assay: Cytotoxicity against human NCI-H522 cells at 10 uM assessed as cell growth relative to control; assay type: functional; details: read-out: Activity
SF-539 = assay: Cytotoxicity against human SF539 cells at 10 uM assessed as cell growth relative to control; assay type: functional; details: read-out: Activity
LOX IMVI = assay: Cytotoxicity against human LOXIMVI cells at 10 uM assessed as cell growth relative to control; assay type: functional; details: read-out: Activity
IGROV-1 = assay: Cytotoxicity against human IGROV1 cells at 10 uM assessed as cell growth relative to control; assay type: functional; details: read-out: Activity
OVCAR-8 = assay: Cytotoxicity against human OVCAR8 cells at 10 uM assessed as cell growth relative to control; assay type: functional; details: read-out: Activity
NCI/ADR-RES = assay: Cytotoxicity against human NCI/ADR-RES cells at 10 uM assessed as cell growth relative to control; assay type: functional; details: read-out: Activity
SN12C = assay: Cytotoxicity against human SN12C cells at 10 uM assessed as cell growth relative to control; assay type: functional; details: read-out: Activity
CCRF-CEM = assay: Cytotoxicity against human CCRF-CEM cells at 10 uM assessed as cell growth relative to control; assay type: functional; details: read-out: Activity
[1] = Cytotoxicity against human […] cells at 10 uM assessed as cell growth relative to control; assay type: functional; details: read-out: Activity
MDA-MB-435 = assay: Cytotoxicity against human MDA-MB-435 cells at 10 uM assessed as cell growth relative to control; assay type: functional; details: read-out: Activity
A498 = assay: Cytotoxicity against human A498 cells at 10 uM assessed as cell growth relative to control; assay type: functional; details: read-out: Activity
OVCAR-5 = assay: Cytotoxicity against human OVCAR5 cells at 10 uM assessed as cell growth relative to control; assay type: functional; details: read-out: Activity
HT-29 = assay: Cytotoxicity against human HT-29 cells at 10 uM assessed as cell growth relative to control; assay type: functional; details: read-out: Activity
EKVX = assay: Cytotoxicity against human EKVX cells at 10 uM assessed as cell growth relative to control; assay type: functional; details: read-out: Activity
HCC 2998 = assay: Cytotoxicity against human HCC2998 cells at 10 uM assessed as cell growth relative to control; assay type: functional; details: read-out: Activity
[2] = target: T1, Dual specificity mitogen-activated protein kinase kinase 5 (Homo sapiens) (UniProt Q13163); details: HEK293, at 10 µM;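 further: MEK5 activity stimulated by EGF, read out as phospho-ERK5 on Western blot after 1 h treatment, expressed relative to control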
T1 sequence (whole entry): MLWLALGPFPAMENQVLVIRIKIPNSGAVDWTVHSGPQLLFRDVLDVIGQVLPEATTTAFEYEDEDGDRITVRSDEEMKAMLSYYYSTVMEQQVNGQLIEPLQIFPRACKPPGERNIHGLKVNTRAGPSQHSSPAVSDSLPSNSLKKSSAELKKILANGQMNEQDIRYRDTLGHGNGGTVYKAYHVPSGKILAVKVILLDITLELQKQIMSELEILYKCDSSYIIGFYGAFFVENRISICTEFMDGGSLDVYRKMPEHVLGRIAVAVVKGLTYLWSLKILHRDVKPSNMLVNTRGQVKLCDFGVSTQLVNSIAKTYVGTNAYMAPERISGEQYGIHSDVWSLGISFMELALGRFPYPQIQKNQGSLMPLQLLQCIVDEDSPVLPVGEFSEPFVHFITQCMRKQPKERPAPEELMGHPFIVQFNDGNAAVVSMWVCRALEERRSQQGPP
Description: Inhibition of EGF-induced MEK5 activity in HEK293 cells assessed as phosphorylated ERK5 level at 10 uM after 1 hr by Western blotting relative to control

SF-295 = assay: Cytotoxicity against human SF295 cells at 10 uM assessed as cell growth relative to control; assay type: functional; details: read-out: Activity
SK-MEL-5 = assay: Cytotoxicity against human SK-MEL-5 cells at 10 uM assessed as cell growth relative to control; assay type: functional; details: read-out: Activity
[3] = Cytotoxicity against human Hs 578T cells at 10 uM assessed as cell growth relative to control; assay type: functional; details: read-out: Activity
OVCAR-3 = assay: Cytotoxicity against human OVCAR-3 cells at 10 uM assessed as cell growth relative to control; assay type: functional; details: read-out: Activity
NCI-H322M = assay: Cytotoxicity against human NCI-H322M cells at 10 uM assessed as cell growth relative to control; assay type: functional; details: read-out: Activity
T47D = assay: Cytotoxicity against human T47D cells at 10 uM assessed as cell growth relative to control; assay type: functional; details: read-out: Activity
SR = assay: Cytotoxicity against human SR cells at 10 uM assessed as cell growth relative to control; assay type: functional; details: read-out: Activity
CAKI-1 = assay: Cytotoxicity against human Caki1 cells at 10 uM assessed as cell growth relative to control; assay type: functional; details: read-out: Activity
HCT-116 = assay: Cytotoxicity against human HCT116 cells at 10 uM assessed as cell growth relative to control; assay type: functional; details: read-out: Activity
UACC-62 = assay: Cytotoxicity against human UACC62 cells at 10 uM assessed as cell growth relative to control; assay type: functional; details: read-out: Activity
HL-60(TB) = assay: Cytotoxicity against human HL-60(TB) cells at 10 uM assessed as cell growth relative to control; assay type: functional; details: read-out: Activity
Malme-3M = assay: Cytotoxicity against human MALME-3M cells at 10 uM assessed as cell growth relative to control; assay type: functional; details: read-out: Activity
SNB-75 = assay: Cytotoxicity against human SNB75 cells at 10 uM assessed as cell growth relative to control; assay type: functional; details: read-out: Activity
786-0 = assay: Cytotoxicity against human 786-0 cells at 10 uM assessed as cell growth relative to control; assay type: functional; details: read-out: Activity
U-251 = assay: Cytotoxicity against human U251 cells at 10 uM assessed as cell growth relative to control; assay type: functional; details: read-out: Activity
HOP-92 = assay: Cytotoxicity against human HOP92 cells at 10 uM assessed as cell growth relative to control; assay type: functional; details: read-out: Activity
M14 = assay: Cytotoxicity against human M14 cells at 10 uM assessed as cell growth relative to control; assay type: functional; details: read-out: Activity
BT-549 = assay: Cytotoxicity against human BT549 cells at 10 uM assessed as cell growth relative to control; assay type: functional; details: read-out: Activity
A549 = assay: Cytotoxicity against human A549 cells at 10 uM assessed as cell growth relative to control; assay type: functional; details: read-out: Activity

## COc1cc(NCc2ccccc2)c2ncn(C(C)C)c2c1
UACC-257
  growth at 10 µM: 106%
NCI-H23
  growth at 10 µM: 91.1%
MDA-MB-468
  growth at 10 µM: 36.5%
SK-OV-3
  growth at 10 µM: 110%
SNB-19
  growth at 10 µM: 90.7%
KM12
  growth at 10 µM: 104%
OVCAR-4
  growth at 10 µM: 50.6%
NCI-H460
  growth at 10 µM: 107%
RXF 393
  growth at 10 µM: 91.2%
ACHN
  growth at 10 µM: 106%
NCI-H522
  growth at 10 µM: 87%
SF-539
  growth at 10 µM: 96.2%
LOX IMVI
  growth at 10 µM: 115%
IGROV-1
  growth at 10 µM: 92.4%
OVCAR-8
  growth at 10 µM: 98.7%
NCI/ADR-RES
  growth at 10 µM: 96.7%
SN12C
  growth at 10 µM: 104%
CCRF-CEM
  growth at 10 µM: 93.9%
[1]
  growth at 10 µM: 71.5%
MDA-MB-435
  growth at 10 µM: 122%
A498
  growth at 10 µM: 106%
OVCAR-5
  growth at 10 µM: 97.2%
HT-29
  growth at 10 µM: 109%
EKVX
  growth at 10 µM: 93.9%
HCC 2998
  growth at 10 µM: 105%
[2]
  inhibition: 85%
SF-295
  growth at 10 µM: 138%
SK-MEL-5
  growth at 10 µM: 122%
[3]
  growth at 10 µM: 174%
OVCAR-3
  growth at 10 µM: 104%
NCI-H322M
  growth at 10 µM: 115%
T47D
  growth at 10 µM: 80.1%
SR
  growth at 10 µM: 51.7%
CAKI-1
  growth at 10 µM: 97.2%
HCT-116
  growth at 10 µM: 103%
UACC-62
  growth at 10 µM: 97.3%
HL-60(TB)
  growth at 10 µM: 50.3%
Malme-3M
  growth at 10 µM: 49.2%
SNB-75
  growth at 10 µM: 92.3%
786-0
  growth at 10 µM: 96.5%
U-251
  growth at 10 µM: 103%
HOP-92
  growth at 10 µM: 64.5%
M14
  growth at 10 µM: 108%
BT-549
  growth at 10 µM: 55.6%
A549
  growth at 10 µM: 110%

## COCCCOc1cc(NCc2ccccc2)c2ncn(C(C)C)c2c1
UACC-257
  growth at 10 µM: 101%
NCI-H23
  growth at 10 µM: 109%
MDA-MB-468
  growth at 10 µM: 104%
SK-OV-3
  growth at 10 µM: 101%
SNB-19
  growth at 10 µM: 90.3%
KM12
  growth at 10 µM: 100%
OVCAR-4
  growth at 10 µM: 87.8%
NCI-H460
  growth at 10 µM: 85.2%
RXF 393
  growth at 10 µM: 94.3%
ACHN
  growth at 10 µM: 95.3%
NCI-H522
  growth at 10 µM: 127%
SF-539
  growth at 10 µM: 93.5%
LOX IMVI
  growth at 10 µM: 94.5%
IGROV-1
  growth at 10 µM: 90.1%
OVCAR-8
  growth at 10 µM: 99.3%
NCI/ADR-RES
  growth at 10 µM: 85.3%
SN12C
  growth at 10 µM: 90.8%
CCRF-CEM
  growth at 10 µM: 86.8%
[1]
  growth at 10 µM: 89.2%
MDA-MB-435
  growth at 10 µM: 110%
A498
  growth at 10 µM: 83.5%
OVCAR-5
  growth at 10 µM: 91.5%
HT-29
  growth at 10 µM: 109%
EKVX
  growth at 10 µM: 95.4%
HCC 2998
  growth at 10 µM: 91.7%
[2]
  inhibition: 51%
SF-295
  growth at 10 µM: 97.4%
SK-MEL-5
  growth at 10 µM: 95.8%
[3]
  growth at 10 µM: 84.4%
OVCAR-3
  growth at 10 µM: 84.9%
NCI-H322M
  growth at 10 µM: 104%
T47D
  growth at 10 µM: 91.9%
SR
  growth at 10 µM: 103%
CAKI-1
  growth at 10 µM: 81.3%
HCT-116
  growth at 10 µM: 100%
UACC-62
  growth at 10 µM: 91.9%
HL-60(TB)
  growth at 10 µM: 100%
Malme-3M
  growth at 10 µM: 113%
SNB-75
  growth at 10 µM: 92%
786-0
  growth at 10 µM: 95.7%
U-251
  growth at 10 µM: 95.6%
HOP-92
  growth at 10 µM: 90.9%
M14
  growth at 10 µM: 104%
BT-549
  growth at 10 µM: 90.1%
A549
  growth at 10 µM: 94%

Reference: ChEMBL document CHEMBL1275384, “Structure-activity relationships of benzimidazole-based selective inhibitors of the mitogen activated kinase-5 signaling pathway” (2010)
